The values below come from a melting point compilation (Tetko et al.).

Molecules are shown by their SMILES.

The term melting point denotes the temperature, or range, at which the solid turns liquid. `Cc1cccc(NC(=O)CCCCl)c1` yielded a melting point of 137 to 139 °C.
`COc1ccc(NC(=O)CCl)c([N+](=O)[O-])c1` gave a melting point of 98 to 100 °C.
Under `Cc1ncc(CN2CCNCC2)s1` stands 79 to 81 °C; under `CCOc1ccc(OCCCC(=O)O)cc1`, 104 to 106 °C; under `CCN1C(=O)CNC1=O`, 100 to 102 °C.
Turning to `CCN1N=C(C(=O)O)CCC1=O`, the melting point was 147 to 149 °C.
`CS(=O)(=O)Nc1ccc(F)cc1C(=O)O` had a melting point of 204 to 206 °C.
Regarding `Cc1cc(C=O)c(C)n1-c1ccc(Cl)cc1`, the melting point was 123 to 125 °C.
With `CC1CN(c2ccc(N)cc2F)CC(C)O1` (centres undefined), the melting point lay in the range of 116 to 118 °C.
`Nc1ccc(F)c(NC(=O)C2CCCCC2)c1` came in with a melting point of 157 to 159 °C.
Turning to `COC(=O)c1c(N)sc2c1CCCCC2`, the melting point was in the range of 94 to 98 °C.
`NNC(=S)NC1CCC1` came in with a melting point of 96 to 98 °C.
`NC(=O)C1COc2ccccc2O1` (centres undefined) yielded a melting point of 141 to 143 °C.
The result for `COC(=O)c1ccc2c(=O)[nH]c(C)nc2c1` reads 274 to 276 °C; that for `CC(NS(C)(=O)=O)C(=O)NN` (centres undefined), 117 to 119 °C; that for `Cc1cc(C)c(C(=O)CCCC(=O)O)c(C)c1`, 75 to 77 °C.
Under `O=C(O)CCc1nc2cc(Br)ccc2s1` stands 154 to 156 °C; under `CC1CN(S(=O)(=O)c2ccc(N)cc2)CC(C)O1` (centres undefined), 199 to 203 °C; under `Cc1ccc(Cl)c2ccc(N)nc12`, 104 to 106 °C.
With `Nc1ccc(Sc2ccc(C(F)(F)F)cc2)cc1`, the melting point lay within 93 to 95 °C.
Under `O=C(O)c1ccn[nH]1` stands 212 to 216 °C; under `N#Cc1ccc(S)c(F)c1`, 59 to 61 °C.
Take `O=C(O)CNC(=O)NC1CC1`: the melting point lay in the range of 179 to 181 °C.
`Cc1ccc2[nH]cc(C(=O)C(F)(F)F)c2c1` came in with a melting point of 243 to 245 °C.
Under `CCCOc1nc2ccccc2cc1/C=C/C(=O)O` stands 159 to 161 °C; under `O=C(CO)c1ccc(F)cc1F`, 95 to 97 °C.
Regarding `CC(C)c1ccc(O)c(C(=O)O)c1`, the melting point lay within 123 to 125 °C.
In turn, `CCOC(=O)c1ccc(N)c(O)c1` showed a melting point of 91 to 93 °C.
Turning to `NC(=O)c1cc(-c2csc(N)n2)c[nH]1`, the melting point was in the range of 235 to 237 °C.
Turning to `CCCc1cc(C(=O)O)[nH]n1`, the melting point is 169 to 171 °C.
`CCCCCOc1ccc2cc(C(=O)O)[nH]c2c1` showed a melting point of 162 to 164 °C.
For the molecule `CN1C(=O)CCC(C(N)=O)C1c1ccc(C(F)(F)F)cc1` (centres undefined), the melting point was in the range of 239 to 241 °C.
`Oc1ccccc1OCc1cscn1` gave a melting point of 120 to 122 °C.
Under `CC(C)(C)OC(=O)N1CC2NCCOC2C1` (centres undefined) stands 54 to 56 °C.
The molecule `CNc1ccnc(C)n1` displayed a melting point of 79 to 81 °C.
The molecule `CCOC(=O)c1[nH]c(C)c(C(=O)OCC)c1CC` displayed a melting point of 108 to 110 °C.
The result for `CC(Oc1cc(Cl)cc(Cl)c1)C(=O)O` (centres undefined) reads 142 to 144 °C; that for `O=C(O)c1ccc(NC(=O)C23CC4CC(CC(C4)C2)C3)cc1`, 284 to 286 °C; that for `CCc1c(C)sc2[nH]c(COCC(=O)O)nc(=O)c12`, 193 to 195 °C.
`NNc1ccc(-n2cccn2)nn1` displayed a melting point of 194 to 196 °C.
In the case of `Cn1cc(N2C(=O)C=CC2=O)cn1`, the melting point is 151 to 153 °C.
For `CS(=O)(=O)N1CCCC(Cl)C1` (centres undefined), the melting point lay within 54 to 56 °C.
`CN1C(=O)CCC(CO)C1c1cccc(Cl)c1` (centres undefined) yielded a melting point of 122 to 124 °C.
Molecule `N#Cc1ccc(C2OCCO2)cc1` showed a melting point of 45 to 47 °C.
Under `COc1cc2c(cc1NC(=O)OCC(F)(F)F)oc1ccccc12` stands 122 to 124 °C; under `O=S(=O)(NCc1ccccc1)c1cccs1`, 145 to 150 °C.
Molecule `Cc1ccc(C2(C(=O)O)CCOCC2)cc1` had a melting point of 189 to 191 °C.
As for `NCc1nc2cc(Cl)ccc2s1`, the melting point lay within 68 to 70 °C.
Under `O=C(O)c1ccc2c(=O)[nH][nH]c(=O)c2c1` stands 250 to 252 °C; under `O=C(O)c1cc([N+](=O)[O-])c(F)c([N+](=O)[O-])c1`, 237 to 239 °C; under `CCOC(=O)c1nc(-c2cccs2)oc1N`, 164 to 166 °C.
Turning to `O=[N+]([O-])c1ccc(Cn2ccnc2)cc1`, the melting point lay in the range of 39 to 41 °C.
Under `ClCc1nnnn1CC1CC1` stands 30 to 32 °C; under `O=C1CC(C(=O)O)c2ccccc2N1` (centres undefined), 211 to 213 °C.
For the molecule `COC(=O)C1CCc2cn[nH]c2C1` (centres undefined), the melting point was in the range of 64 to 66 °C.
`Cn1c(=O)n(CCC(=O)O)c2ccccc21` yielded a melting point of 226 to 228 °C.
The result for `Cn1cc(C(=O)O)c(=O)n(C)c1=O` reads 189 to 191 °C; that for `NNC(=O)c1cn(-c2ccccc2)nc1-c1ccccc1`, 161 to 163 °C; that for `NCCNS(=O)(=O)c1ccccc1`, 74 to 76 °C.
`Cc1c(NC(=O)CCCl)cccc1[N+](=O)[O-]` returned a melting point of 131 to 133 °C.
In turn, `CCOC(=O)c1sc(N)c(C(=O)c2ccccc2)c1C` showed a melting point of 119 to 121 °C.
Molecule `NNc1ncnc2sccc12` showed a melting point of 211 to 213 °C.
The result for `O=C(NC1CCC(O)CC1)C(F)(F)F` (centres undefined) reads 186 to 188 °C.
`Cc1ccc(-c2nc(C(=O)O)cs2)o1` had a melting point of 194 to 196 °C.
In turn, `O=C1OCCN1c1cccc([N+](=O)[O-])c1` came in with a melting point of 135 to 137 °C.
As to `O=c1[nH]c(-c2ccc(F)cc2)cs1`, the melting point lay in the range of 179 to 181 °C.
In turn, `OCc1ncc(-c2ccccc2)o1` gave a melting point of 117 to 119 °C.
Under `Clc1cc(C2=NCCN2)ccn1` stands 165 to 167 °C.
`Nn1cnc2ccccc21` came in with a melting point of 147 to 149 °C.
The result for `CNCc1nnn[nH]1` reads 224 to 226 °C.
The molecule `Cc1cc(Cl)n2c(nc3ccccc32)c1C#N` registered a melting point of 210 to 212 °C.
The result for `Cc1cc(C)n(-c2ccc(CO)cc2)n1` reads under 17 °C; that for `O=C(O)c1cc(-c2ccncc2)on1`, 276 to 278 °C; that for `Cc1cc(N)nn1-c1ccccc1`, 79 to 81 °C.
In turn, `COc1ccc(C(=O)C(C)Br)cc1` (centres undefined) gave a melting point of 66 to 68 °C.
The molecule `Nc1ncnc(Cl)c1C=O` came in with a melting point of 159 to 161 °C.
The result for `O=C(O)Cc1csc2nccn12` reads 259 to 261 °C.
In turn, `CC1CC(=O)c2cccc(Br)c21` (centres undefined) showed a melting point of 45 to 47 °C.
In turn, `O=c1[nH]c(CCl)nc2c1cnn2-c1ccccc1` registered a melting point of 259 to 261 °C.
The result for `Cn1c(SCC(=O)O)nc2ccccc21` reads 155 to 159 °C.
Under `NCc1nnc2n1CCCC2C(F)(F)F` (centres undefined) stands 81 to 83 °C.
The result for `Clc1ccc(Br)cc1CBr` reads 71 to 73 °C.
`OC1CCCC1N1CCN(c2cccc(Cl)c2)CC1` (centres undefined) had a melting point of 99 to 101 °C.
As to `CNCc1nnc[nH]1`, the melting point is 91 to 93 °C.
`O=C(O)CCc1cc2ccccc2[nH]c1=O`: the melting point is 227 to 229 °C.
The result for `CCCC1CCc2[nH]c(=O)sc2C1` (centres undefined) reads 119 to 121 °C; that for `NS(=O)(=O)C1CCCC1`, 76 to 78 °C.
`CCc1ccc(-c2ccc(C(=O)O)o2)cc1` gave a melting point of 170 to 172 °C.
`Cc1ccnc(N)c1N` gave a melting point of 111 to 113 °C.
Regarding `CC(C)NC(=O)OCC(F)(F)F`, the melting point is 48 to 50 °C.
`Clc1nc(C2CC2)nc2sc3c(c12)CCCC3` showed a melting point of 112 to 114 °C.
Molecule `O=C(Nc1ccccc1Cl)c1c[nH]c2ccccc12` yielded a melting point of 213 to 215 °C.
`COC(=O)c1c(Cl)ncnc1Cl` came in with a melting point of 50 to 52 °C.
In turn, `N#Cc1cccc(-n2cccn2)n1` yielded a melting point of 116 to 118 °C.
The molecule `COc1cc2c(cc1C=O)OC(C)C2` (centres undefined) displayed a melting point of 78 to 80 °C.
As for `CC(O)c1cn(-c2ccccc2)nn1` (centres undefined), the melting point lay in the range of 75 to 77 °C.
As for `CCc1cc(=O)[nH]c(-c2ccc(Cl)nc2)n1`, the melting point lay in the range of 208 to 210 °C.
The molecule `CC(SCc1ncc(-c2ccc(Cl)cc2)o1)C(=O)O` (centres undefined) displayed a melting point of 129 to 131 °C.
The molecule `CCN(CC)S(=O)(=O)c1ccc(N2CC(C(=O)O)CC2=O)cc1` (centres undefined) displayed a melting point of 123 to 127 °C.
Under `COc1cc(SC)ccc1C(=O)O` stands 111 to 114 °C; under `Cc1c(N)cccc1C(=O)N1CCSCC1`, 155 to 157 °C.
As for `NC(=O)Cn1cc(C(=O)O)nn1`, the melting point lay in the range of 198 to 200 °C.
`O=C(O)c1ccc(I)c(Br)c1` gave a melting point of 243 to 245 °C.
As for `O=C(O)C1CCCSC1` (centres undefined), the melting point was in the range of 76 to 78 °C.
`Nc1nc2c(s1)CNCC2`: the melting point lay within 176 to 178 °C.
With `CC(C)Oc1ncccc1O`, the melting point lay in the range of 57 to 59 °C.
In turn, `O=C(NCC1CCCCN1)c1ccccc1` (centres undefined) returned a melting point of 109 to 111 °C.
On to `O=C(O)c1cc(S(=O)(=O)N2CCCC2)ccc1Cl`, for which the melting point is 194 to 196 °C.
`CCOc1ccc(NS(=O)(=O)c2ccc(OC)c(N)c2)cc1` gave a melting point of 94 to 95 °C.
The molecule `Cc1cc(C)n2nc(Br)nc2n1` had a melting point of 185 to 187 °C.
Turning to `O=C(O)c1nc(-c2cccs2)n(-c2cccc(F)c2)n1`, the melting point was in the range of 162 to 164 °C.
Consider `COc1ccc(-c2nnn(CC(=O)O)n2)cc1OC`, for which the melting point fell in the range of 259 to 261 °C.
As to `CCN1CCCC1CNC(=O)C1CCNCC1` (centres undefined), the melting point lay in the range of 191 to 194 °C.
Under `N#Cc1ccc(N2CCN(c3ccccn3)CC2)nc1` stands 165 to 167 °C; under `NCC(O)C1CC1` (centres undefined), 34 to 36 °C.
Turning to `COc1ccc(-c2nc(C(=O)O)cs2)cc1OC`, the melting point is 204 to 206 °C.
`CC=Cc1ccc(OCCCC(=O)OC)c(OC)c1` returned a melting point of 38 to 40 °C.
For `Nc1cccc([N+](=O)[O-])c1C(=O)O`, the melting point fell in the range of 143 to 145 °C.
`COc1ccc(C(O)C2CC2)c(C)c1` (centres undefined) displayed a melting point of 39 to 41 °C.
The molecule `COC(=O)c1cc(S(=O)(=O)Cl)ccc1C` yielded a melting point of 44 to 46 °C.
For the molecule `COc1ccc(Cl)cc1CS(=O)(=O)Cl`, the melting point was 69 to 71 °C.
Under `O=C(O)C(Oc1ccccc1)c1ccccc1` (centres undefined) stands 103 to 105 °C; under `O=C(CCl)NC1CCCCNC1=O` (centres undefined), 196 to 198 °C.
`O=C(O)c1cc(S(=O)(=O)Cl)c(Br)o1` showed a melting point of 139 to 141 °C.
